Test results as given in patent US11041013B2, “Methods of preparation and composition of peptide constructs useful for treatment of rheumatoid arthritis” (Cel-Sci Corporation, priority 2008, dated 2021).

Tests used:
[1] = tested on: collagen induced arthritis (CIA); assay: CIA model, arthritis index (AI) score; assay type: in vivo, DBA/1J mice; details: for effectiveness in the murine CIA model of RA relative to SEQ ID NO. 99: studies 1-5 and FIGS. 1-4; for progression of disease, as indicated by AI scores: two treatments of 33 nmoles in ICFA adjuvant, Enbrel 3 mg/kG daily for the first 14 days
Experimental: The following five studies are of CEL-2000 therapeutic vaccine for collagen induced arthritis (CIA) where the first step was to identify a good animal model for testing the vaccine, which is the collagen induced arthritis (CIA) model in young (6-7) week old male DBA/1J mice. These mice received 2 injections of bovine collagen the first in complete Freund's adjuvant (CFA) on day 0 and then 3 weeks later on day 21, in Incomplete CFA. After the second collagen injection, the mice were evaluated daily for any joint swelling or redness. Each of the paws was scored on a 4 point scale (arthritis index Arthritis Index (AI)) with respect to the number of digits with symptoms and the thickness of the paw measured, at least 3-4 times a week. Each mouse was weighed weekly.
The first study is the CIA model CEL-2000 therapeutic vaccination conjugate specificity effect on AI scores (study 4.1 see FIG. 1 and legend). When significant disease is noted, usually about day 28, the mice are grouped (n=8) with a range of scores between 1 and 6 and group mean of 2.5 to 3. At this point the therapy begins according to protocol. Controls include groups with induced disease but no therapy and groups of healthy mice without induced disease. A therapy control of Enbrel (3 mg/kG daily) was included. In this study (FIG. 1), mice received two treatments of 33 nmoles (for CEL-2000 equivalent to 4.8 mg/kG) of CEL-2000, (the same dose as used for the L.E.A.P.S. HSV vaccines), or other conjugates of the same collagen peptide used in CEL-2000 using the same ICBLs as in the HSV or EAM systems for comparison using a GMP grade ICFA adjuvant.
AI scores are evaluations on a scale of 0=normal to 4=maximal effect of joint thickening, redness, immobilization of joints in a digit or total paw for each of the 4 paws in the CIA mouse model of rheumatoid arthritis.
Treatment started when group score was 3.5. This was done to have all groups starting with same score, as opposed to the range between […] seen in the first study. The same dose of Enbrel as was used in the first study but was given every other day for the entire study period of 28 days.

cytokines = assay: Serum cytokines after immunization (Ray Biotech protein microarrays); assay type: in vivo, A/J mice; details: unmodified J ICBL emulsified in Seppic ISA51
Experimental: The outcome of the immune response to vaccines is likely at least in part determined by the cytokines elicited by the immunization. Cytokines elicited by immunization of A/J mice with either the J, JgD or JH peptides emulsified in Seppic ISA51 were evaluated from serum obtained on days 3, 10 and 24 after immunization using Ray Biotech protein microarrays. […] IL12 is produced by DCs and macrophages and promotes the development of Th1 responses which are characterized by production of IL2 and IFN-γ. […] L.E.A.P.S. conjugates ex vivo studies

[2] = tested on: collagen induced arthritis (CIA); assay: CIA model, histopathology of right rear feet; assay type: in vivo, DBA/1J mice; details: for disease pathology compared statistically with untreated CIA mice: Enbrel: 14 days after cessation of therapy, 3×CEL-2000: 3 weeks after immunization; for histopathology: bone resorption / histopathology: cartilage damage / histopathology: inflammation / histopathology: pannus: hind paw and ankle, Enbrel for 14 days, CEL-2000 100 nmol on days 0 and 7
Excerpt: The fourth study is for the CIA model CEL-2000 therapeutic vaccination; histopathology (study 4.4 see FIG. 4 and legend). At the termination of the experiments the animals were euthanized, the right rear feet were collected and stored individually in buffered formalin to be fixed in preparation for paraffin embedding, sectioning, staining and analysis. The feet in buffered formalin were sent for processing, reading and plotting of the data (representative sections from mid group specimens were photographed).
The pathologists scored the feet for disease pathology in 4 areas: inflammation, pannus, cartilage and bone. FIG. 4 is a summary plot of the analysis performed cores of the 4 areas from the following groups: Control no disease; CIA disease: CIA Disease Enbrel daily for 14 days continued for 2 more weeks before termination: CEL-2000 and CEL-2001 groups (vaccinated on day 0 and 7) from study 1 (FIG. 1) and from study 2 (FIG. 2) 1× and 3×CEL-2000 vaccinated groups on day 0 and 7.

[3] = tested on: vaccine peptides, collagen or citrulline or components used to make vaccines; details: mouse, in vivo
Experimental: The fifth study is for the CIA-model CEL-2000 vaccination serum antibodies (study 4.5). Antibody production to the vaccine peptides, collagen or citrulline or components used to make vaccines were evaluated in mouse sera from the previous two sets of studies. As expected, all sera recognized the bovine collagen molecule used to induce the disease. Neither the dose, amount of vaccine, nor timing of vaccination seemed to affect the titer or isotype. […] No antibodies were detected with reactivity to the citrulline using a citrulline fibrin peptide substrate in the ELISA. […] (data not shown) L.E.A.P.S. conjugates serum cytokine studies

Substance	effectiveness in the murine CIA model of RA relative to SEQ ID NO. 99 [1]	progression of disease, as indicated by AI scores ([1]; study 4.1)	disease pathology compared statistically with untreated CIA mice [2]	histopathology: bone resorption [2]	histopathology: cartilage damage [2]	histopathology: inflammation [2]	histopathology: pannus [2]	other results
DGQEEKAGVVSTGLI-GGGGS-TGGKPGIAGFKGEQGPKGEP (DGQEEKAGVVSTGLIGGGGSTGGKPGIAGFKGEQGPKGEP; Completely synthesized peptide construct) [CEL-2001]	less effective	–	–	–	–	–	–	–
DLLKNGERIEKVEGGG [J]	–	–	–	–	–	–	–	most remarkable change in cytokine levels upon immunization (cytokines): reduction in IL10 levels
DLLKNGERIEKVEGGGTGGKPGIAGFKGEQGPKGEP (Completely synthesized peptide construct) [CEL-2000, peptide J combined with the human type II collagen peptide 254-273]	–	limited the progression of disease	statistically had less disease pathology	less bone resorption in fewer digit joints	minimal	mild	minimal	AI scores, reduction compared with other conjugates ([1]; study 4.1, 33 nmoles, versus CEL-2001 or CEL-2002): reduced to a greater extent than was seen with other conjugates; progression of disease over the experimental period ([1]; study 4.2, 100 nmol dose (3× treatment) on days 0 and 7): appeared to limit the progression of disease throughout the experimental period; progression of arthritis disease compared with Enbrel ([1]; study 4.2, 2 doses of 33 or 100 nmol subcutaneously on days 0 and 7 or 0 and 14, Enbrel every other day for 28 days): at least as good as those of mice treated with Enbrel; Joint thickening, redness, immobilization of joints in a digit or total paw ([1]; study 4.2, each of the 4 paws): reduced; progression of disease, as indicated by reduced AI scores ([1]; study 4.2, treatment started when group score was 3.5): limited the progression of disease; duration of effect versus Enbrel ([2]; 2 vaccinations at 100 nmol, 28 day period): more lasting effect than the multiple Enbrel treatments; protection by all 4 histopathology criteria (group ranking) ([2]; 3× (100 nmol) on days 0 and 7, FIG. 4): best protected group (least diseased) by all 4 criteria
Enbrel [reference compound]	–	slightly more effective than the vaccine	not statistically different from untreated CIA mice	minimal	mild	mild	minimal	antibodies to Enbrel in sera [3]: antibodies could be detected
TGGKPGIAGFKGEQGPKGEP ((254)..(273) Type II Collagen; listed as Homo sapiens) [CEL-2002]	less effective	–	–	–	–	–	–	–
